This experiment deals with T1, recombinant aminopeptidase A (UniProt P16406).
T1 sequence (P16406 1-945): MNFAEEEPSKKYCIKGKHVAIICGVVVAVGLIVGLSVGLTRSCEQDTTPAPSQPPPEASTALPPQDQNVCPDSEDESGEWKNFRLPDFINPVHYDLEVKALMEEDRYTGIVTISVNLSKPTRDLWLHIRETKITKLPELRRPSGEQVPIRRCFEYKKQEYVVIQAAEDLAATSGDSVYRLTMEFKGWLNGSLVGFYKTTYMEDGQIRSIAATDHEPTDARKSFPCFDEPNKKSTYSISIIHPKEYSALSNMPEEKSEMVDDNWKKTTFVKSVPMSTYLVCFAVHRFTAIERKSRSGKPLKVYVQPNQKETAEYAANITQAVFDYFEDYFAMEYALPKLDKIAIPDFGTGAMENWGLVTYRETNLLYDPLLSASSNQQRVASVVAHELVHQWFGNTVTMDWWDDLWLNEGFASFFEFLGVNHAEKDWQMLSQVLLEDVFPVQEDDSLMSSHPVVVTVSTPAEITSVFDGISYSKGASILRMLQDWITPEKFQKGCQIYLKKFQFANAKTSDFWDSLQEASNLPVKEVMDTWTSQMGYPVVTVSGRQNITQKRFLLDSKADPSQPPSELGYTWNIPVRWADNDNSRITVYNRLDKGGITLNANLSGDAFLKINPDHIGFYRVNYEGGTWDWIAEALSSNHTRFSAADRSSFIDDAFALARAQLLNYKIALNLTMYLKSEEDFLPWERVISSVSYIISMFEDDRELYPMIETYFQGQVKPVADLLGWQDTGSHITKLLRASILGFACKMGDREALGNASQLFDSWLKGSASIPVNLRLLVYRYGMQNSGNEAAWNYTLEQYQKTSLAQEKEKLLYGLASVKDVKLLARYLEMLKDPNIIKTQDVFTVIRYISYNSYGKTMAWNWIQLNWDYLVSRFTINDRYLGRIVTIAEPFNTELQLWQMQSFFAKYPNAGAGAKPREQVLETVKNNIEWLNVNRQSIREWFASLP
The experiment can be described thus: Determination of the inhibition constants with respect to APA (GluβNa hydrolysis, microplate assay). The format is biochemical. The conditions noted are these: for Ki: recombinant APA, 200 μM GluβNa, pH 7.4 Tris-HCl, 4 mM CaCl2, 37° C. The protocol: The compounds 5 were tested, in vitro, on recombinant aminopeptidase A in order to determine their affinity for APA.
The assaying of APA activity is based on the protocol of Goldberg, adapted to the microplate assay scale (Pro Bind® 3915) (Chauvel et al., J. Med. Chem., 1994, 37, 1339-1346).
In vitro, in the presence of calcium ions, APA hydrolyzes α-L-glutamyl-β-naphthylamide (gluβNa) to glutamate and β-naphthylamine (βNa). A diazotization reaction in an acidic medium makes it possible to visualize the β-naphthylamine by formation of a violet-colored complex: spectrophotometric measurement then makes it possible to determine the amount of complex formed and, by reference to a standard curve produced with increasing concentrations of β-naphthylamine, to deduce therefrom the enzymatic activity of the sample.
The GluβNa substrate and the β-naphthylamine (Bachem) are solubilized in dimethyl sulfoxide and 0.1N HCl, respectively, and conserved at −20° C. at a concentration of 10^−2M. The diazotization reaction is carried out in the presence of sodium nitrite (87 mM), of ammonium sulfamate (130 mM) and of N-(1-naphthyl)ethylenediamine dihydrochloride (23 mM).
The reaction takes place at pH 7.4 in 50 mM Tris-HCl buffer, in the presence of calcium (4 mM CaCl2); the sample to be assayed is incubated at 37° C. in the presence of a substrate (200 μM GluβNa) and in the presence or absence of various concentrations of the inhibitor to be tested, in a final volume of 100 μl. The reaction is stopped by the addition of 10 μl of 3N HCl. A standard curve for β-naphthylamine in an acidic medium (addition of 10 μl of 0.1N HCl) is produced in parallel.
The following are added to each well:
25 μl of sodium nitrite (mix, wait 5 min at ambient temperature),
50 μl of ammonium sulfamate (stir, wait 5 min at ambient temperature), then
25 μl of 23 mM N-(1-naphthyl)ethylenediamine dihydrochloride (mix, wait for the violet color to stabilize for approximately 30 min at 37° C.).
The absorbance is subsequently measured at 540 nm.
The compound EC 33 ((S)-3-amino-4-mercaptobutylsulfonic acid) described in application WO 99/36066), a monomer of the compound RB 150 (4,4′-dithiobis-3-aminobutane-1-sulfonic acid) described in application WO 2004/007441, was used as a reference compound.

By Ki is commonly meant a measure of affinity in units of concentration, obtained from inhibition or displacement. Consider `N[C@@H](CCS(=O)(=O)O)[C@H](S)CCc1ccccc1` [Compound 5e3, (3S,4R)-3-Amino-4-mercapto-6-phenylhexane-1-sulfonic acid], for which the Ki is 1040 nM.

In the case of `NC(CCS(=O)(=O)O)C(S)c1ccccc1` (stereo not shown) [Compound 5b, 3-Amino-4-mercapto-4-phenylbutane-1-sulfonic acid], the Ki came to 8000 nM. For `NC(CCS(=O)(=O)O)C(S)CCc1ccc(Br)cc1` (stereo not shown) [Compound 5h, 3-Amino-4-mercapto-6-(4-bromophenyl)hexane-1-sulfonic acid], the Ki is 110 nM. In addition, the “inhibitory activity compared with the reference compound (EC 33)” value (relative to EC 33) is “of the same order as or greater than that of the reference compound”.

Take `CC(C)CC(S)C(N)CCS(=O)(=O)O` (stereo not shown) [Compound 5c, 3-Amino-4-mercapto-6-methylheptane-1-sulfonic acid]: the Ki came out at 4000 nM.

Regarding `NC(CCS(=O)(=O)O)C(S)CCc1ccccc1` (stereo not shown) [Compound 5e, 3-Amino-4-mercapto-6-phenylhexane-1-sulfonic acid], the Ki is 80 nM. Further, the “inhibitory activity compared with the reference compound (EC 33)” value (relative to EC 33) was “of the same order as or greater than that of the reference compound”.

For `CC(S)C(N)CCS(=O)(=O)O` (stereo not shown) [Compound 5a, 3-Amino-4-mercaptopentane-1-sulfonic acid], the Ki is more than 100000 nM. As to `NC(CCS(=O)(=O)O)C(S)Cc1ccccc1` (stereo not shown) [Compound 5d, 3-Amino-4-mercapto-5-phenylpentane-1-sulfonic acid], the inhibitory constant (Ki) amounted to 380 nM. For the same compound, the “inhibitory activity compared with the reference compound (EC 33)” value (relative to EC 33) is listed as “of the same order as or greater than that of the reference compound”. Turning to `N[C@@H](CCS(=O)(=O)O)[C@@H](S)CCc1ccccc1` [Compound 5e2, (3S,4S)-3-Amino-4-mercapto-6-phenylhexane-1-sulfonic acid], the inhibition constant Ki was determined as 30 nM. In addition, for the setting “relative to EC 33”, the “APA-inhibiting activity greater than that of the reference compound (EC 33) by a factor” value was determined as 10.

`COc1ccc(CCC(S)C(N)CCS(=O)(=O)O)cc1` (stereo not shown) [Compound 5f, 3-Amino-4-mercapto-6-(4-methoxyphenyl)hexane-1-sulfonic acid]: the Ki was found to be 92 nM. Also, the “inhibitory activity compared with the reference compound (EC 33)” value (relative to EC 33) is reported as “of the same order as or greater than that of the reference compound”.

For the compound `N[C@H](CCS(=O)(=O)O)[C@@H](S)CCc1ccccc1` [Compound 5e1, (3R,4S)-3-Amino-4-mercapto-6-phenylhexane-1-sulfonic acid], the Ki was determined as 1920 nM.

As for `COc1ccccc1CCC(S)C(N)CCS(=O)(=O)O` (stereo not shown) [Compound 5g, 3-Amino-4-mercapto-6-(2-methoxyphenyl)hexane-1-sulfonic acid], the Ki is 96 nM. Also, the “inhibitory activity compared with the reference compound (EC 33)” value (relative to EC 33) was “of the same order as or greater than that of the reference compound”. On to `N[C@H](CCS(=O)(=O)O)[C@H](S)CCc1ccccc1` [Compound 5e4, (3R,4R)-3-Amino-4-mercapto-6-phenylhexane-1-sulfonic acid], for which the Ki was 840 nM.

In the case of `N[C@H](CS)CCS(=O)(=O)O` [EC 33, (S)-3-amino-4-mercaptobutylsulfonic acid, reference compound], the inhibition constant Ki stood at 304 nM.

(Values after patent US7582797B2, “Derivatives of 4,4′-dithiobis-(3-aminobutane-1-sulfonates) and compositions comprising the same” (Institute National de la Sante et de la Recherche Medicale …, priority 2003, dated 2009).)
